One compound from article PMC6155437 (Molecules : A Journal of Synthetic Chemistry and Natural …, 2017) can be followed below.

By pKi is commonly meant −log10 of the Ki, conventionally taken in molar units. Read a low pKi as a high Ki. One may read the IC50 as the concentration that inhibits the measured activity by half. Low readings indicate greater potency, high ones weaker potency. What is called pIC50 is the IC50 on a negative log10 scale, so that one unit is a factor of ten.

Assay type in all cases: in vitro ADME
One data set concerns the target CYP3A4 (Homo sapiens, UniProt P08684). Description: CYP3A4 midazolam 1′-hydroxylase inhibition in human liver microsomes. Set-up: tissue Corning Life Sciences; host or cells: pooled human liver microsomes (150 donors). The conditions noted are these: for IC50: Midazolam 1′-hydroxylase. As for the experimental part: (§1) After a 3-min pre-incubation at 37 °C, the reactions were initiated by addition of NADPH and incubation proceeded for 15 min at 37 °C in a shaking water bath. […] The incubation mixtures were centrifuged (13,000× g, 4 min, 4 °C). All assays were performed in triplicate and mean values were used in calculations.
(§2) Each reaction was initiated by adding the seven-CYP probe substrate cocktail.
(§3) The reactions were initiated by addition of NADPH at 37 °C and stopped after 10 min by placing the incubation tubes on ice and adding 100 μL of ice-cold methanol containing an internal standard (d9-1-hydroxybufuralol). The incubation mixtures were centrifuged (13,000× g, 4 min, 4 °C) and then 50 μL of the supernatant was diluted with 50 μL of water. Aliquots (5 μL) of the diluted supernatants were analyzed by LC-MS/MS.
(§4) The metabolites formed from CYP substrates were quantified simultaneously by a LC-MS/MS method described previously. The ESI source settings in positive-ion mode for metabolite ionization were: capillary voltage, 4200 V; vaporizer temperature, 350 °C; capillary temperature, 330 °C; sheath gas pressure, 35 psi; and auxiliary gas pressure, 15 psi. Quantification was performed by selected reaction monitoring (SRM) of the [M + H]^+ ion and the related product ion for each metabolite: acetaminophen, 152.1 > 110.3; N-desethylamodiaquine, 328.1 > 283.0; 7-hydroxycoumarin, 163.0 > 107.2; 4-hydroxybupropion, 256.1 > 238.0; 4′-hydroxydiclofenac, 312.0 > 231.1; 4′-hydroxy-mephenytoin; 235.1 > 150.1; 1′-hydroxybufuralol, 278.1 > 186.1; 1′-hydroxymidazolam, 341.9 > 324.0; ^13C2,^15N-acetaminophen 155.1 > 111.2; and d9-1′-hydroxybufuralol, 287.2 > 187.0. Analytical data were processed using Xcalibur software (version 2.1, Thermo Scientific).
(§5) The apparent kinetic parameters for inhibitory potential (Ki and kinact values) and inhibition mode were estimated from the fitted curves using the Enzyme Kinetics program (ver. 1.1; Systat Software Inc., San Jose, CA, USA).
In general terms: Microsomes from liver hold many membrane-bound enzymes, among them those of drug oxidation.

In the next data set the target is T1, UGT1A1 (Homo sapiens, UniProt P22309).
T1 construct: pooled human liver microsomes (0.2 mg/mL), 5 mM UDPGA; tissue Corning Life Sciences; host or cells: pooled human liver microsomes (150 donors)
T1 sequence (P22309 26-533): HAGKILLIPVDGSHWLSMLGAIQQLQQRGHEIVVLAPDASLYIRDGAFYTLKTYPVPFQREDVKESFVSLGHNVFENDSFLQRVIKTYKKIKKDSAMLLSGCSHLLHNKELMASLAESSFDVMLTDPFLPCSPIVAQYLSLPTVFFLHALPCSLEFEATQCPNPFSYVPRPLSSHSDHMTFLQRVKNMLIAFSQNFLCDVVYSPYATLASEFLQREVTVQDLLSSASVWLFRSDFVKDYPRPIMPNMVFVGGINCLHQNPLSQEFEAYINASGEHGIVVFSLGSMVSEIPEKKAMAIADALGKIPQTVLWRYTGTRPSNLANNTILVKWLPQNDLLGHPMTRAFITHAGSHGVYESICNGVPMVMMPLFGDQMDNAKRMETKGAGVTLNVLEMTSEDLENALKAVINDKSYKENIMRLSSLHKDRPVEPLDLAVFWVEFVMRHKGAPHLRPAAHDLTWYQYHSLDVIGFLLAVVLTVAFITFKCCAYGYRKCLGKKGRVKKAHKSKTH
Description: UGT1A1 SN-38 glucuronidation inhibition in ultrapool human liver microsomes. The conditions noted are these: at 50 µM. The method, then:
After 3 min of pre-incubation at 37 °C, the reactions were initiated by addition of UDPGA; incubation continued for 60 min at 37 °C in a shaking water bath. The reaction was stopped by placing the tubes on ice and adding 50 µL ice-cold acetonitrile containing internal standards (propofol glucuronide for chenodeoxycholic acid 24-acyl-β-glucuronide and mycophenolic acid glucuronide, and meloxicam for SN-38 glucuronide, trifluoperazine glucuronide, N-acetylserotonin β-D-glucuronide, and naloxone 3-β-D-glucuronide). The incubation mixtures were centrifuged (13,000× g, 4 min, 4 °C). All assays were performed in triplicate and average values were used in calculations.
The metabolites formed from the six UGT cocktail substrates were measured simultaneously using the LC-MS/MS method. The ESI source settings in both positive- and negative-ion modes for metabolite ionization were: capillary voltage, 4200 V; vaporizer temperature, 350 °C; capillary temperature, 330 °C; sheath gas pressure, 35 psi; and auxiliary gas pressure, 15 psi. […] Data were processed using Xcalibur software.
as §5

The next data set deals with T2, CYP2B6 (Homo sapiens, UniProt P20813).
T2 construct: pooled human liver microsomes (0.2 mg/mL); tissue Corning Life Sciences; host or cells: pooled human liver microsomes (150 donors)
T2 sequence (P20813 1-491): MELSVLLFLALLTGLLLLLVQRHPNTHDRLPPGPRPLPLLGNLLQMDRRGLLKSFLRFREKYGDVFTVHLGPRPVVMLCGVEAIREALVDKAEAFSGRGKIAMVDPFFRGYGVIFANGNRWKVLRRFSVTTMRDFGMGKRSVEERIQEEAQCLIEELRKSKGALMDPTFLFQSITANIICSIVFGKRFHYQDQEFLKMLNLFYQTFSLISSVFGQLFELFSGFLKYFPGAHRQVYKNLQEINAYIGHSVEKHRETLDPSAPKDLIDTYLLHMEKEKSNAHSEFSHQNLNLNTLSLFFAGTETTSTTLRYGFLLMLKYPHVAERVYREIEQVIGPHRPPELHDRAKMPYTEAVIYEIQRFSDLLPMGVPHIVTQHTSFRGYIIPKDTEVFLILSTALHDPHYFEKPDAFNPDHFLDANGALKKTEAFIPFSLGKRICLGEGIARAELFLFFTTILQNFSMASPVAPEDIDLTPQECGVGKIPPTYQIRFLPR
Description: CYP2B6 bupropion hydroxylase inhibition in ultrapool human liver microsomes. The conditions noted are these: at 50 µM. The method, then: All incubations were performed in triplicate, and average values were used.
The metabolites formed from CYP substrates were quantified simultaneously by a LC-MS/MS method described previously. The ESI source settings in positive-ion mode for metabolite ionization were: capillary voltage, 4200 V; vaporizer temperature, 350 °C; capillary temperature, 330 °C; sheath gas pressure, 35 psi; and auxiliary gas pressure, 15 psi. […] Analytical data were processed using Xcalibur software (version 2.1, Thermo Scientific).
as §5

In another data set the target is T3, CYP2C9 (Homo sapiens, UniProt P11712).
T3 construct: tissue Corning Life Sciences; host or cells: pooled human liver microsomes (150 donors)
Nature of the data set: CYP2C9 diclofenac 4′-hydroxylase inhibition in human liver microsomes. The conditions noted are these: for IC50: Diclofenac 4′-hydroxylase. The method, then:
as §1, §2, §3, §4, §5

pIC50, pKi: −log10 of the molar value. Entries after “also recorded” stand apart in the source; their conditions may differ.

T3 sequence (P11712 whole entry): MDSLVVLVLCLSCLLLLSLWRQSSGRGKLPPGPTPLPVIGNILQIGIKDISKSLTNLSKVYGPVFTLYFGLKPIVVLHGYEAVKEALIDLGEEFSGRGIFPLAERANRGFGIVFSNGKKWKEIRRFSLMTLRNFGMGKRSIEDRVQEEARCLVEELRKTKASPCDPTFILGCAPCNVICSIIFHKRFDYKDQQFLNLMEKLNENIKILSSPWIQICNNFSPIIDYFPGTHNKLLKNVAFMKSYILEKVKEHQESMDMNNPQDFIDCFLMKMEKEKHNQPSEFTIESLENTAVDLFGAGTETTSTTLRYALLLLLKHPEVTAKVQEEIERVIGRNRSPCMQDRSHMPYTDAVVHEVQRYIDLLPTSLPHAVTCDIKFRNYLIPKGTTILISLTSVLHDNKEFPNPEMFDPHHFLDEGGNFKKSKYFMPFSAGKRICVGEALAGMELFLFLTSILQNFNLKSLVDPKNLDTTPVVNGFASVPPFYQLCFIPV
CYP3A4, sequence (P08684 whole entry): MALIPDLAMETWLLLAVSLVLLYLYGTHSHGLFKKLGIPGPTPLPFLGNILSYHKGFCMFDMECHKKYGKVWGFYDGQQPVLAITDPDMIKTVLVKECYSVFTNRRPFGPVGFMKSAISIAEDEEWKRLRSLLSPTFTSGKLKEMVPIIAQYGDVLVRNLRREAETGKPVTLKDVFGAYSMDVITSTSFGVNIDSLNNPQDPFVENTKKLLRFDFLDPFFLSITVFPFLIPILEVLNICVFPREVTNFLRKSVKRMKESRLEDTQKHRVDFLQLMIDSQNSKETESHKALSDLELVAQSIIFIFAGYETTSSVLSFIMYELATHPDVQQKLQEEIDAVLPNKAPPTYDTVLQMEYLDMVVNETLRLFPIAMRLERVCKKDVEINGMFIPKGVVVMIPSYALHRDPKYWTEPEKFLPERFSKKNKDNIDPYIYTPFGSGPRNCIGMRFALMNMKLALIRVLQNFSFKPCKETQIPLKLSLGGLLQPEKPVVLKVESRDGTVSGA

Turning to `O=C(c1cccc2ccccc12)c1cn(CCCCCF)c2ccccc12` [AM-2201, 1-(5-fluoropentyl-1H-indol-3-yl)-(naphthalene-1-yl)methanone], the figures for the pKi at CYP3A4 and at CYP2C9 were 5.40 and 5.41, respectively. The “Inhibition Mode” value at CYP3A4 (CYP3A4 midazolam 1′-hydroxylation) and at CYP2C9 (CYP2C9 diclofenac 4′-hydroxylation) was “competitively inhibited; also recorded: competitive” each time. Moreover, the IC50 was 6.9 µM at CYP3A4 (IC50 (μM) No Preincubation, CYP3A4, human liver microsomes, 2.5 μM midazolam); 3.8 µM at CYP3A4 (IC50 (μM) With Preincubation, CYP3A4, 30 min preincubation with NADPH); 11.9 µM on CYP2C9 (IC50 (μM) No Preincubation, CYP2C9, human liver microsomes, 10 μM diclofenac); 11.9 µM on CYP2C9 (IC50 (μM) With Preincubation, CYP2C9, 30 min preincubation with NADPH). The pIC50 was 5.40 against CYP3A4 (IC50, CYP3A4-catalyzed midazolam 1′-hydroxylation, abstract) and 5.41 at CYP2C9 (IC50, CYP2C9-catalyzed diclofenac 4′-hydroxylation, abstract). In addition, the “inhibition of UGT1A1-catalyzed SN-38 glucuronidation” value against UGT1A1 is “negligibly inhibited”. For the same compound, the “inhibition of CYP2B6-mediated bupropion hydroxylation” value on CYP2B6 is given as “negligibly inhibited”.
